Calls of active or inactive are those of the source.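 How the source made its calls: active means virus-caused cell damage raised over twofold versus untreated cells in three repeats, without toxicity at overlapping doses; inactive means the rest.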

In this test the test system is PC3 cells, HSV G47-delta CPE, CellTiter-Glo, 96 h. Put plainly: augmentation of HSV G47-delta CPE in PC3 cells – cell-based, CellTiter-Glo, secondary, confirmation (AID 588782).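 On CPE increase: percent rise in virus-caused cell damage over infected cultures given no drug.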 As to conditions: for outcome / CPE increase: at 10 µM; for CC50: measured here: PC3 cytotoxicity; for CPE increase: stronger effect = higher value. In general terms: In ATP-based viability assays light output follows the ATP content of the culture.

Take `O=C(OCCCN1CCN(CCCOC(=O)c2ccccc2)CC1)c1ccccc1`: the result was inactive and the CC50 – broadly, the concentration giving 50% cytotoxicity – is over 100 µM.
On the same counts, the results for `COc1cc(C(=O)OCCCN2CCCN(Cc3ccccc3)CC2)cc(OC)c1OC` are “inactive” and over 100 µM.
For the compound `COc1ccc(C(=O)OCCN2CCCN(CCOC(=O)c3ccc(OC)cc3)CC2)cc1`, the outcome was inactive and the CC50 was over 100 µM.
For `COc1ccc(C(=O)OCCCN2CCOCC2)cc1`, the CPE increase is 16.9% (inactive) and the CC50 was over 100 µM.
Consider `O=C(OCCCN1CCOCC1)c1ccc(F)cc1`, for which the outcome was inactive and the CC50 was over 100 µM.
In the same order, the values of `CN1CCCN(CCCOC(=O)c2ccccc2)CC1` are “inactive” and over 100 µM.
In the same order, the values of `COc1ccc(C(=O)OCCN2CCN(CCOC(=O)c3ccc(OC)cc3)CC2)cc1` are “inactive” and over 100 µM.
`COc1cc(C(=O)OCCCN2CCCC2)cc(OC)c1OC`: the outcome was inactive and the CC50 is over 100 µM.
On to `COc1cc(C(=O)OCCN2CCN(C)CC2)cc(OC)c1OC`, for which the result was inactive and the CC50 was over 100 µM.
For the compound `CN1CCN(CCCOC(=O)c2ccccc2)CC1`, the result was inactive and the CC50 was over 100 µM.
Take `COc1cc(OC)cc(C(=O)OCCN2CCN(CCOC(=O)c3cc(OC)cc(OC)c3)CC2)c1`: the outcome was inactive and the CC50 is over 100 µM.
`COc1cc(C(=O)NCCCN2CCCN(CCCNC(=O)c3cc(OC)c(OC)c(OC)c3)CC2)cc(OC)c1OC`: the CPE increase is 16% (inactive) and the CC50 is over 100 µM.
Turning to `COc1cc(-c2cn(CCCN3CCCN(CCCn4cc(-c5cc(OC)c(OC)c(OC)c5)nn4)CC3)nn2)cc(OC)c1OC`, the outcome was inactive and the CC50 is over 100 µM.
On the same counts, the results for `COc1cc(COCCCN2CCCN(CCCOCc3cc(OC)c(OC)c(OC)c3)CC2)cc(OC)c1OC` are “inactive” and over 100 µM.
Take `COc1cc(C(=O)OCCCN2CCOCC2)cc(OC)c1OC`: the outcome was inactive and the CC50 is over 100 µM.
In the case of `COc1cc(OC)cc(C(=O)OCCN2CCCN(CCOC(=O)c3cc(OC)cc(OC)c3)CC2)c1`, the result was inactive and the CC50 is over 100 µM.
For the compound `COc1ccc(C(=O)OCCN2CCN(C)CC2)cc1`, the outcome was inactive and the CC50 is over 100 µM.
Take `COc1ccc(C(=O)OCCN2CCCN(C)CC2)cc1`: the CPE increase is 27.1% (inactive) and the CC50 was over 100 µM.
Consider `CN1CCN(CCCOC(=O)c2ccc(F)cc2)CC1`, for which the result was inactive and the CC50 was over 100 µM.
On the same counts, the results for `CN1CCCN(CCCOC(=O)c2ccc(F)cc2)CC1` are “inactive” and over 100 µM.
Turning to `COc1cc(OC)cc(C(=O)OCCCNCCNCCCOC(=O)c2cc(OC)cc(OC)c2)c1`, the CPE increase is 15.8% (inactive) and the CC50 was determined as 32.1 µM.
Consider `COc1cc(C(=O)OCCN2CCOCC2)cc(OC)c1OC`, for which the result was inactive and the CC50 is over 100 µM.
`O=C(NCCCN1CCN(CCCNC(=O)c2ccc3c(c2)OCO3)CC1)c1ccc2c(c1)OCO2`: the CPE increase was 14.4% (inactive) and the CC50 was over 100 µM.
Turning to `COc1cc(OC)cc(C(=O)OCCN2CCN(C)CC2)c1`, the result was inactive and the CC50 was over 100 µM.
As for `CNCCN(C)CCCOC(=O)c1ccc(OC)cc1`, the result was inactive and the CC50 is over 100 µM.
`COc1ccc(C(=O)OCCCN2CCCN(CCCOC(=O)c3ccc(OC)cc3)CC2)cc1`: the result was inactive and the CC50 was over 93 µM.
In the same order, the values of `COc1cc(C(=O)OCCCN(C)CCN(C)CCCOC(=O)c2cc(OC)c(OC)c(OC)c2)cc(OC)c1OC` are “inactive” and over 100 µM.

The record behind these values is PubChem BioAssay AID588782 (Southern Research Specialized Biocontainment Screening …, 2011).
